Legend:
[1] = Toxicity, average lethal dose (LD50); assay type: in vivo; settings: male mice, intravenous application
[2] = system: lymphocytes B; assay: Determination of haemolytic plaques for the assessment of the maturation of lymphocytes B; assay type: in vivo; settings: mice immunized with sheep erythrocytes, n = 5
Experimental: A suspension of sheep erythrocytes (Institute of Microbiology, Faculty of Medicine, Ljubljana, Slovenia) in physiological saline (10^8 /ml) was used for the immunization. […] Romurtide was dissolved in a solution of D-manitol (45 mg/ml; Nopia) and compound 1 was dissolved in physiological saline. The immunization was completed on day 5 after the administration of sheep erythrocytes and the mice were sacrificed. Their spleens were removed and homogenized in Gibco 199 medium. The lymphocytes were separated on the Ficol separating medium (Pharmacia, Uppsala, Sweden). After repeated rinsing with Gibco 199 medium, the cells were resuspended in RPMI 1640 nutrient medium with added 10% of foetal calf serum and streptomycin. To 50 μl of the cell suspension, 450 μl of trypan blue were added and the cells were counted in Neubauer's chamber. The number of lymphocytes per ml of the cell suspension was calculated. To 100 μl of the diluted cell suspension, there were added 200 μl of the RPMI 1640 nutrient medium, 50 μl of a 10% suspension of sheep erythrocytes and 50 μl of guinea pig complement (Institute for Microbiology, Faculty of Medicine, Ljubljana, Slovenia). The reaction mixture (RM) was put into the prepared chambers on the slide, the chambers were sealed with white wax and incubated at 37° C. for 60 minutes. After the completion of the incubation, the plaques were counted under microscope. The number of plaques per 1×10^6 cells was calculated according to the following equations: [formula] In the table, the values are presented as stimulation indexes (number of plaques in the test group/number of plaques in the control group).

[3] = system: Candida albicans; assay: Immunorestoration test (cyclophosphamide-immunosuppressed mice challenged with Candida albicans); assay type: in vivo; settings: for Number of survivals: Candida albicans challenge, n = 10
Experimental: The test substance or a vehicle was administered i.p. to groups of 10 mice on days 1, 3 and 5 of the experiment in four different doses (0.1, 1, 10 and 100 mg/kg). Cyclophosphamide (30 mg/kg) was administered p.o. on days 2, 4, and 6. One day after the last immunosuppressant (cyclophosphamide) dose, the mice were challenged with a suspension of Candida albicans sufficient to result in the mortality of a predominant number of the animals.

[4] = Pyrogenous activity according to the method of USPXXII; assay type: in vivo
Experimental: The pyrogenous activity was determined according to the method of USPXXII.

[5] = system: B-16 melanoma; assay: Antitumor activity, solid subcutaneous B-16 melanoma; assay type: in vivo, C57B1/6 strain mice; settings: 10 mg/kg on five consecutive days, started 24 hours after tumor induction; for Animals with complete regression of tumors: still without tumors on day 20
Experimental: Solid subcutaneous B-16 melanoma were used on C57B1/6 strain mice of 8 to 10 weeks. The tumors were implanted by injection of 3×10^5 live tumor cells into the left lower abdomen of mice. The suspension of tumor cells was prepared in ENAM (Eagle's Minimal Essential Medium, Sigma Chemical Co., St. Louis, Mo., U.S.A.) enriched with 2% foetal calf serum (FCS, Sigma). Tumor cells (B-16 melanoma tumor cells, clone F1, ATCC, Rockville, Md.) for implantation into test animals were grown in vitro in a cell culture. The application of the test substances was started 24 hours after the tumor induction. The test substance was injected five times on five consecutive days in a dose of 10 mg/kg, the dose of Nopia was 1 mg/kg of test animals daily (a fivefold human dose). The antitumor activity of the active compounds was monitored by recording the tumor emergence, daily measuring the tumor diameters and calculating the tumour volumes.

[6] = 0.1 mg/kg × 3 i.p. + cyclophosphamide 30 mg/kg p.o.
[7] = 1 mg/kg × 3 i.p. + cyclophosphamide 30 mg/kg p.o.
[8] = 10 mg/kg × 3 i.p. + cyclophosphamide 30 mg/kg p.o.
[9] = 100 mg/kg × 3 i.p. + cyclophosphamide 30 mg/kg p.o.

For C[C@H](NC(=O)C1(C)Oc2ccccc2N(C)C1=O)C(=O)N[C@H](CCC(=O)O)C(N)=O (stereo partly drawn) [Compound 1, N-(3,4-Dihydro-2,4-dimethyl-3-oxo-2H-1,4-benzoxazine-2-carbonyl)-L-alanyl-D-isoglutamine], the “average lethal dose (LD50)” value [1] was over 250 mg/kg, the “Stimulation index (number of plaques in the test group/number of plaques in the control group)” value ([2]; dose 1 μ/mouse) was 3.64 and the “Stimulation index (number of plaques in the test group/number of plaques in the control group)” value ([2]; dose 10 μ/mouse) was 5.32. It also gave a Number of survivals [3, 6] of 6, a Number of survivals [3, 7] of 6 and a Number of survivals [3, 8] of 7. The Number of survivals [3, 9] was 6, the “Dose achieving the immunorestorative effect, times lower in comparison with the related compounds of U.S. Pat. No. 5,231,216” value ([3]; comparison across i.p. doses 0.1-100 mg/kg) was “up to 100 times” and the “Immunorestorative activity compared with romurtide” value ([3]; mouse, in vivo) was “superior to that of the MDP analogue romurtide”. The Pyrogenous activity [4] was “did not show any pyrogenous activity”.
With C[C@@H](NC(=O)C1(C)Oc2ccccc2NC1=O)C(=O)N[C@H](CCC(=O)O)C(N)=O (stereo partly drawn) [Compound 2, (2R)-N-(3,4-dihydro-2-methyl-3-oxo-2H-1,4-benzoxazine-2-carbonyl)-L-alanyl-D-isoglutamine] the “Animals with complete regression of tumors” value [5] was “two of eight animals”.
For C[C@H](NC(=O)C1(C)Oc2ccccc2NC1=O)C(=O)N[C@H](CCC(=O)O)C(N)=O (stereo partly drawn) [Compound 3, N-(3,4-dihydro-2-methyl-3-oxo-2H-1,4-benzoxazine-2-carbonyl)-L-alanyl-D-isoglutamine], the “Animals still without tumors on day 20 after the tumor induction” value [5] was “three animals of nine”.
With C[C@H](NC(=O)C1(C)Oc2ccccc2N(C)C1=O)C(=O)N[C@H](CCC(=O)O)C(N)=O (stereo partly drawn) [Compound 4, (2S)-N-(3,4-dihydro-2,4-dimethyl-3-oxo-2H-1,4-benzoxazine-2-carbonyl)-L-alanyl-D-isoglutamine] the “Animals with complete regression of tumors” value [5] was “one of nine animals”.
O=P1(N(CCCl)CCCl)NCCCO1 (stereo not drawn) [Cyclophosphamide, reference compound] gave a Number of survivals ([3]; cyclophosphamide alone 30 mg/kg × 3 p.o.) of 3.
In the case of CCCCCCCCCCCCCCCCCC(=O)NCCCC[C@H](NC(=O)CC[C@@H](NC(=O)[C@H](C)NC(=O)[C@@H](C)O[C@H]1[C@H](O)[C@@H](CO)OC(O)[C@@H]1NC(C)=O)C(N)=O)C(=O)O (stereo partly drawn) [Romurtide, romurtide, reference compound], the “Stimulation index (number of plaques in the test group/number of plaques in the control group)” value ([2]; dose 1 μ/mouse) was 1.06, the “Stimulation index (number of plaques in the test group/number of plaques in the control group)” value ([2]; dose 10 μ/mouse) was 1.92 and the Number of survivals [3, 6] was 5.
In the case of CCCCCCCCCCCC(=O)N[C@@H]1CCCC[C@H]1OCC(=O)N[C@@H](C)C(=O)N[C@H](CCC(=O)O)C(N)=O [U.S. 5,231,216, N[trans2-(2dodecanoylaminocyclohexyloxy)acetyl)L-alanyl-D-isoglutamine, reference compound], the Number of survivals [3, 6] was 2, the Number of survivals [3, 7] was 5 and the Number of survivals [3, 8] was 6. It also gave a Number of survivals [3, 9] of 6.

— patent US5824652A, “Heterocyclic acyldipeptides, processes for the preparation thereof and pharmaceutical compositions containing the same” (Univerza v Ljubljani, Fakulteta za naravoslovje in …, priority 1993, dated 1998)
